Data taken from publication PMC4589238, “Acute Biphasic Effects of Ayahuasca” (PLoS ONE, 2015).
Where two headings read alike, the source gives them in different places.

What was measured:
[1] = Plasma concentrations of ayahuasca compounds and metabolites after oral ayahuasca (LC/MS/MS); type: in vivo, human; parameters: AUC (mean ± sd): unit not given here; conditions: for Detection in plasma samples: any plasma sample after oral ayahuasca; for Cmax / Tmax: both sexes, human, in vivo; for Cmax: po
Text: A sample of six liters of "Hoasca" was donated by the União do Vegetal (UDV) church in Brazil for the specific purpose of use in this study. Quantification of the main compounds in the brew was done with liquid chromatography-electrospray ionization-tandem mass spectrometry (LC/MS/MS). The screening included the following compounds: DMT, DMT‐N‐oxide (DMT-NO), N‐methyltryptamine (NMT), indoleacetic acid (IAA), 5‐hydroxy‐DMT (5-OH-DMT, or bufotenin), 5‐methoxy‐DMT (5-MeO-DMT), Harmine, Harmol, Harmaline, Harmalol, THH, 7‐hydroxy‐tetrahydroharmine (THH-OH), and 2‐methyl‐tetrahydro‐beta‐carboline (2-MTHBC). The original liquid volume was then reduced to 50% using a rotary evaporator to decrease the amount of liquid intake.
Blood was collected in sterile EDTA containing tubes. Ten blood samples (3 mL each) were collected every 25 minutes, starting 25 minutes before ayahuasca ingestion and ending 200 minutes after ingestion (in a total of ten samples for each individual). Blood was collected by a professional nurse, with a catheter that remained in place during the entire time of the study. Each tube was carefully and slowly turned upside-down three times and then stored at 0°C until all ten samples were collected. Blood samples were then centrifuged at 2000 rpm for 10 min at 4°C and the resulting plasma immediately collected and frozen at -80°C. The frozen plasma samples were stored at -80°C until shipped on dry ice to USA for analysis according to [31]. Compounds included in this screening were DMT, DMT-NO, NMT, IAA, 5-OH-DMT (bufotenin), 5-MeO-DMT, Harmine, Harmol, Harmaline, Harmalol, THH, THH-OH and 2-MTHBC.
Two volunteers opted out of blood collection, and data from one volunteer was discarded due to high hemolysis in the blood samples. Therefore data were available from 16 volunteers. Maximum plasma Concentration (Cmax), Time for maximum plasma concentration (Tmax) and area under the curve (AUC) of ten identified compounds are summarized in Table 2. […] No significant differences were found between men and women for any of the identified compounds in blood. […] There were no significant correlations between time to vomit and Cmax or AUC.

[2] = test system: healthy volunteers; assay: Association between plasma concentration and EEG spectral changes (generalized linear models); type: in vivo, human
Protocol: Relationships between plasma concentration of identified compounds and spectral changes in the six frequency bands evaluated were calculated by fitting generalized linear models (glmfit function in MATLAB) for each compound and frequency band. This analysis was followed by the non-parametric cluster based correction with 5000 permutations.
Results were considered statistically significant when p <0.05. Effect sizes are also reported, using Partial eta squared (partial η^2) for the main frequency clusters and Cohen’s d for the generalized linear models.

[3] = plasma, 16 volunteers, oral ayahuasca, sampling to 200 min, read-out: Cmax (mean ± sd)
[4] = plasma, 16 volunteers, oral ayahuasca, read-out: Cmax (min—max)
[5] = plasma, 16 volunteers, oral ayahuasca, read-out: Tmax (mean ± sd) (converted)
[6] = plasma, 16 volunteers, oral ayahuasca
[7] = left centro-parieto-occipital electrodes
[8] = left fronto-central electrodes (F7 and FC5)
[9] = left fronto-temporal electrodes
[10] = left parieto-occipital electrodes

CN1CCc2c([nH]c3ccccc23)C1 [2-MTHBC, 2‐methyl‐tetrahydro‐beta‐carboline]
Detection in plasma samples [1]: never detected

COc1ccc2[nH]cc(CCN(C)C)c2c1 [5-MeO-DMT, 5‐methoxy‐DMT]
Detection in plasma samples [1]: never detected

CN(C)CCc1c[nH]c2ccc(O)cc12 [5-OH-DMT, 5‐hydroxy‐DMT]
Detection in plasma samples [1]: never detected

CN(C)CCc1c[nH]c2ccccc12 [DMT, N,N-dimethyltryptamine]
Cmax [1, 3]: 0.0254 ± 0.0168 µg/mL
Cmax [1, 4]: 0.00249 to 0.0659 µg/mL
Tmax ([1]; from ayahuasca ingestion, group average curve, read-out: Time of peak plasma level in the group average (converted)): 1.25 h
Tmax [1, 5]: 2.21 h
AUC (min—max) [1, 6]: 9.52 to 219.10 g·min/mL
Cohen's d, plasma concentration vs fast-gamma power increase ([2]; bilateral temporo-parieto-occipital electrodes): 0.0309
Cohen's d, plasma concentration vs alpha band power decrease [2, 7]: 0.0822
Cohen's d, plasma concentration vs slow-gamma power increase [2, 7]: 0.0125
Cohen's d, plasma concentration vs beta power increase [2, 8]: 0.1131
Cohen's d, plasma concentration vs fast-gamma power increase [2, 9]: 0.0193
Cohen's d, plasma concentration vs slow-gamma power increase [2, 9]: 0.0966
Cohen's d, plasma concentration vs delta band increase ([2]; left fronto-temporal electrodes (FT9, F7 and FT7)): 0.2962
Cohen's d, plasma concentration vs fast-gamma power increase ([2]; right frontal electrodes): 0.1366
Cohen's d, plasma concentration vs slow-gamma power increase ([2]; right frontal electrodes): 0.0161
Cohen's d, plasma concentration vs delta band increase ([2]; right frontal electrodes (AF4 and F2)): 0.2100

C[N+](C)([O-])CCc1c[nH]c2ccccc12 [DMT-NO, DMT‐N‐oxide]
AUC (mean ± sd) [1, 6]: 60.37 ± 57.60
AUC (min—max) [1, 6]: 5.21 to 191.29 g·min/mL
Cmax (min—max) [1, 6]: 0.00158 to 0.0406 µg/mL
Tmax (mean ± sd) [1, 6]: 1.849 ± 0.6267 h
Cmax (mean ± sd) ([1]; plasma, 16 volunteers, oral ayahuasca, sampling to 200 min): 0.01442 ± 0.0125 µg/mL
Clusters between plasma concentration and beta band ([2]; beta band): No significant clusters
Cohen's d, plasma concentration vs fast-gamma power increase ([2]; bilateral parieto-occipital electrodes): 0.0003
Clusters between plasma concentration and delta band ([2]; delta band): not significant
Cohen's d, plasma concentration vs fast-gamma power increase ([2]; left centro-frontal electrodes): 0.1917
Cohen's d, plasma concentration vs slow-gamma power increase ([2]; left centro-parieto-occipital extending to right parietal electrodes): 0.0593
Cohen's d, plasma concentration vs alpha band power decrease ([2]; left centro-parieto-occipital extending to some left frontal electrodes): 0.0610
Cohen's d, plasma concentration vs slow-gamma power increase ([2]; right centro-temporal electrodes (C6, T8 and TP8)): 0.0052
Cohen's d, plasma concentration vs fast-gamma power increase ([2]; right centro-temporo-frontal electrodes): 0.0269
Cohen's d, plasma concentration vs slow-gamma power increase ([2]; right frontal electrodes): 0.0061
Cohen's d, plasma concentration vs alpha band power decrease ([2]; right fronto-temporal electrodes (FC6, FT8 and FT10)): 0.1341

CC1=NCCc2c1[nH]c1cc(O)ccc21 [Harmalol]
Cmax [1, 3]: 0.0172 ± 0.0136 µg/mL
Cmax [1, 4]: 0.00311 to 0.0485 µg/mL
Tmax [1, 5]: 2.08 h
AUC (min—max) [1, 6]: 9.91 to 204.99 g·min/mL
Clusters between plasma concentration and EEG spectra ([2]; delta, theta and beta frequency bands): did not show any significant clusters
Cohen's d, plasma concentration vs alpha band power decrease ([2]; left centro-parietal electrodes): 0.0673
Cohen's d, plasma concentration vs slow-gamma power increase [2, 8]: 0.0707
Cohen's d, plasma concentration vs fast-gamma power increase [2, 9]: 0.1479
Cohen's d, plasma concentration vs alpha band power decrease [2, 10]: 0.1056
Cohen's d, plasma concentration vs slow-gamma power increase [2, 10]: 0.0542
Cohen's d, plasma concentration vs fast-gamma power increase ([2]; right frontal electrodes): 0.0785
Cohen's d, plasma concentration vs slow-gamma power increase ([2]; right frontal electrodes): 0.001
